Experimental data published in patent US5506239A, “Carbostyril derivative and platelets aggregation inhibitory agent” (Otsuka Pharmaceutical Co., Ltd., priority 1991, dated 1996).

Experiments:
platelets [1] = assay: Platelets aggregation inhibitory activity (method of Born et al.), ADP-induced, human PRP (Pharmacological Test I); type: cell-based, man; conditions: 7.5 μM ADP, 37° C., read-out: IC50 ADP (50% platelets aggregation inhibition)
Procedure: (§1) The platelets aggregation inhibitory activity of each test compound was measured by the method of Born et al. [J. Physiol., London, 162, 67 (1962)], using Platelets Aggregation Tracer manufactured by Nikoh Bioscience Co., Ltd.
(§2) 9 volumes of a blood collected from person was mixed with 1 volume of a 3.8% aqueous sodium citrate solution. Part of the mixture was subjected to centrifugation at 1,100 rpm for 10 minutes to obtain a platelet rich plasma (PRP). The remainder of the mixture was also subjected to centrifugation at 3,000 rpm for 10 minutes to obtain a platelet poor plasma (PPP).
(§3) The number of platelets in the PRP was measured using Coulter Counter manufactured by Coulter Electronics Inc. Then, the PRP was diluted with the PPP so that the number of platelets in the dilution became 300,000, whereby a PRP solution was prepared.
(§4) 200 μl of this PRP solution and 2 ml of a solution containing a test compound at a given concentration were placed in an aggregation measurement cell and heated at 37° C. for 1 minute. Thereto was added 20 μl of adenosine diphosphate (ADP manufactured by Sigma Co.) or a collagen suspension (Collagen Reagent manufactured by Horm, Hormon-Chemie, Gmbh) to induce aggregation of platelets. The resulting mixture in the cell was measured for change of transmittance, after which a platelets aggregation curve was prepared. Incidentaly, the concentration of ADP or collagen was selected so that the final Concentration became 7.5 μM or 20 μg/ml.
(§5) Using the platelets aggregation curve, there was calculated a maximum aggregation rate (MAR) of platelets using the followoing formula: […]
(§6) wherein a represents a transmittance of the PRP obtained in the same manner; c represents a transmittance of the PPP obtained in the same manner; and b represents a transmittance at the maximum change, of the PRP solution containng the test compound and the aggregation inducer.
(§7) A MAR was also calculated as above, for the control containing no test compound.
(§8) Using the above two MARs, there were calculated platelets aggregation inhibitions (%) of each test compound at various concentrations using the following formula.
(§9) Inhibition=[1-(MAR of PRP solution containing test compound)/(MAR of PRP
(§10) solution containing no test compound)]×100
(§11) Using the above obtained platelets aggregation inhibitions (%) of each test compound at various concentrations, there was calculated a concentration (IC50) of each test compound for 50% platelets aggregation inhibition.

platelets [2] = assay: Platelets aggregation inhibitory activity (method of Born et al.), collagen-induced, human PRP (Pharmacological Test I); type: cell-based, man; conditions: Homo sapiens, Platelet, 20 μg/ml collagen, 37° C., read-out: IC50 Collagen (50% platelets aggregation inhibition)
Procedure: as §1, §2, §3, §4, §5, §6, §7, §8, §9, §10, §11

Compound | IC50 (platelets [1]; Homo sapiens, Platelet) | IC50 (platelets [2]) | IC50 (platelets [1])
CCN1C[C@H](O)C[C@H]1CN(CCCCOc1ccc2[nH]c(=O)ccc2c1)CC1CCCCCCC1 [Example 71] | 18 µM | 7.4 µM | –
O=c1ccc2cc(OCCCCN(CCN3CCOCC3)CC3CCCCCCC3)ccc2[nH]1 [Example 45] | 22 µM | 25 µM | –
O=c1ccc2cc(OCCCCCN(CCn3ccnc3)Cc3ccccc3)ccc2[nH]1 [Example 69] | 15 µM | 9.5 µM | –
O=c1ccc2cc(OCCCCN(Cc3ccccc3)S(=O)(=O)CCCn3ccnc3)ccc2[nH]1 [Example 122] | 22 µM | 29 µM | –
O=c1ccc2cc(OCCCCN(CCN3CCC[C@H]3CO)CC3CCCCCCC3)ccc2[nH]1 [Example 49] | 6.9 µM | 22 µM | –
O=c1ccc2cc(OCCCS(=O)(=O)N(CCN3CCC(O)CC3)CC3CCCCO3)ccc2[nH]1 (centres unmarked) [Example 84] | 9.5 µM | 9.1 µM | –
Cc1ccc(CN(CCCCCOc2ccc3[nH]c(=O)ccc3c2)CCN2CCC(O)CC2)cc1 [Example 32] | 4.8 µM | 6.1 µM | –
CN(C)C1CCN(CCN(CC2CCCCCCC2)S(=O)(=O)CCCOc2ccc3[nH]c(=O)ccc3c2)CC1 [Example 100] | 13 µM | 6.5 µM | –
O=c1ccc2cc(OCCCCS(=O)(=O)N(CCNCCO)CC3CCCCCCC3)ccc2[nH]1 [Example 108] | 2.9 µM | 2 µM | –
O=C(CN(CC1CCCCCCC1)S(=O)(=O)CCCOc1ccc2[nH]c(=O)ccc2c1)N1CCC(O)CC1 [Example 81] | 6.1 µM | 11 µM | –
CCN(CC)CC(CO)N(CC1CCCCCCC1)S(=O)(=O)CCCCOc1ccc2[nH]c(=O)ccc2c1 (centres unmarked) [Example 107] | 3.4 µM | 3.2 µM | –
O=c1ccc2cc(OCCCS(=O)(=O)N(CCN3CCC(O)CC3)CC3CCCCCCC3)ccc2[nH]1 [Example 78] | 1.4 µM | 0.38 µM | –
O=c1ccc2cc(OCCCS(=O)(=O)N(CCN3CCC4(CC3)OCCO4)CC3CCCCCCC3)ccc2[nH]1 [Example 101] | 2.9 µM | 3.2 µM | –
O=c1ccc2cc(OCCCCS(=O)(=O)N(CCN3CCC(O)CC3)Cc3ccc(Cl)c(Cl)c3)ccc2[nH]1 [Example 95] | 10 µM | 7.1 µM | –
CN(C)C1CCN(CCN(CCCCOc2ccc3[nH]c(=O)ccc3c2)CC2CCCCCCC2)CC1 [Example 46] | 20 µM | 20 µM | –
O=c1ccc2cc(OCCCS(=O)(=O)N(CCN3CCC(O)CC3)CC3CCCCC3)ccc2[nH]1 [Example 82] | 4.5 µM | 3.8 µM | –
CCN1C[C@H](O)C[C@H]1CN(CC1CCCCC1)S(=O)(=O)CCCCOc1ccc2[nH]c(=O)ccc2c1 [Example 106] | 1.4 µM | 0.9 µM | –
O=c1ccc2cc(OCCCCCS(=O)(=O)N(CCN3CCC(O)CC3)CC3CCCCCCC3)ccc2[nH]1 [Example 80] | 13 µM | 15 µM | –
O=c1ccc2cc(OCCCS(=O)(=O)N(CCN3C[C@H](O)[C@@H](O)C3)CC3CCCCCCC3)ccc2[nH]1 [Example 102] | 9.5 µM | 15 µM | –
O=C1CC[C@@H](CO)N1CCN(CCCCCOc1ccc2[nH]c(=O)ccc2c1)Cc1ccccc1 [Example 55] | 3.7 µM | 2.6 µM | –
O=c1ccc2cc(OCCCCCN(CCN3CCC(O)CC3)Cc3ccccc3)ccc2[nH]1 [Example 29] | 12 µM | 6.3 µM | –
CCOC(=O)CN(CC1CCCCCCC1)S(=O)(=O)CCCOc1ccc2[nH]c(=O)ccc2c1 [Example 114] | 6.5 µM | 4 µM | –
CCN(CC)CCN(CC1CCCCCC1)S(=O)(=O)CCCOc1ccc2[nH]c(=O)ccc2c1 [Example 110] | 4.7 µM | 8.3 µM | –
COc1ccc(CN(CCN2CCC(O)CC2)S(=O)(=O)CCCCOc2ccc3[nH]c(=O)ccc3c2)cc1OC [Example 96] | 8.7 µM | 6.5 µM | –
O=C(C1CCCCCCC1)N(CCCCOc1ccc2[nH]c(=O)ccc2c1)CCN1CCC(O)CC1 [Example 41] | 8.7 µM | 11 µM | –
O=c1ccc2cc(OCCCCCN(CCN3CCC(O)CC3)Cc3ccc(Cl)c(Cl)c3)ccc2[nH]1 [Example 36] | 11 µM | 20 µM | –
O=c1ccc2cc(OCCCCN(CCN3CCC(O)CC3)C3CCCCC3)ccc2[nH]1 [Example 26] | 15 µM | 14 µM | –
O=C(NCCCOc1ccc2[nH]c(=O)ccc2c1)N(CCN1CCC(O)CC1)CC1CCCCCCC1 [Example 131] | 2.4 µM | 1.3 µM | –

Compound | IC50 (platelets [1]; Homo sapiens, Platelet) | IC50 (platelets [2]) | IC50 (platelets [1])
O=c1ccc2cc(OCCCCCN(CCN(CCO)CCO)Cc3ccccc3)ccc2[nH]1 [Example 58] | 3.8 µM | 4.8 µM | –
O=c1ccc2cc(OCCCNC(=S)N(CCN3CCC(O)CC3)CC3CCCCCCC3)ccc2[nH]1 [Example 132] | 2.4 µM | 1.8 µM | –
CN(C(=O)NCCCOc1ccc2[nH]c(=O)ccc2c1)C1CCCCC1 [Example 133] | 2.9 µM | – | –
CC(=O)NCCN(CC1CCCCCCC1)S(=O)(=O)CCCOc1ccc2[nH]c(=O)ccc2c1 [Example 111] | 2.2 µM | 2.9 µM | –
O=c1ccc2cc(OCCCCN(CCN3CCC(O)CC3)CC3CCCCO3)ccc2[nH]1 (centres unmarked) [Example 24] | 14 µM | 14 µM | –
O=c1ccc2cc(OCCCCS(=O)(=O)N(CCN3CCC(O)CC3)C3CCCCCCC3)ccc2[nH]1 [Example 88] | 2.8 µM | 1.4 µM | –
O=c1ccc2cc(OCCCCN(CCN3CCC4(CC3)OCCO4)CC3CCCCCCC3)ccc2[nH]1 [Example 47] | 25 µM | 29 µM | –
O=c1ccc2cc(OCCCCS(=O)(=O)N(CCN3CCC[C@H]3CO)CC3CCCCC3)ccc2[nH]1 [Example 104] | 3.5 µM | 2.3 µM | –
O=c1ccc2cc(OCCCCCN(CCN3CCCS3(=O)=O)Cc3ccccc3)ccc2[nH]1 [Example 56] | 14 µM | 7.7 µM | –
O=c1ccc2cc(OCCCS(=O)(=O)N(CCN3CCN(CCO)CC3)CC3CCCCCCC3)ccc2[nH]1 [Example 99] | 2.9 µM | 3.5 µM | –
O=c1ccc2cc(OCCCCCN(CCN3CCN(CCO)CC3)Cc3ccccc3)ccc2[nH]1 [Example 57] | 18 µM | 17 µM | –
O=c1ccc2cc(OCCCCS(=O)(=O)N(CCN3CCCS3(=O)=O)Cc3ccccc3)ccc2[nH]1 [Example 105] | 2.2 µM | 1.1 µM | –
O=c1ccc2cc(OCCCCS(=O)(=O)N(CCN3CCC(O)CC3)Cc3cccs3)ccc2[nH]1 [Example 90] | 5.3 µM | 5.4 µM | –
CN(C(=S)CCCOc1ccc2[nH]c(=O)ccc2c1)C1CCCCC1 [Example 135] | – | – | 22 µM
O=c1ccc2cc(OCCCS(=O)(=O)N(CCN3CCC[C@H]3CO)CC3CCCCCCC3)ccc2[nH]1 [Example 103] | 2.6 µM | 3.2 µM | –
O=C([C@@H]1C[C@@H](O)CN1CCCCOc1ccc2[nH]c(=O)ccc2c1)N1CCCCC1 [Example 74] | 17 µM | 20 µM | –
O=c1ccc2cc(OCCCS(=O)(=O)N(CCN3CCCCC3)CC3CCCCCCC3)ccc2[nH]1 [Example 97] | 14 µM | 18 µM | –
O=c1ccc2cc(OCCCCN(CCNCCO)CC3CCCCCCC3)ccc2[nH]1 [Example 60] | 15 µM | 5.3 µM | –
CN(C1CCCCC1)S(=O)(=O)CCCCOc1ccc2[nH]c(=O)ccc2c1 [Example 77] | 2.1 µM | 4.9 µM | –
O=c1ccc2cc(OCCCCCN(CCO)Cc3ccccc3)ccc2[nH]1 [Example 67] | 4.5 µM | 2.9 µM | –
O=c1ccc2cc(OCCCCCN(CCN3CCC(O)CC3)Cc3cccs3)ccc2[nH]1 [Example 40] | 13 µM | 10 µM | –
CCN(CC)C(=O)CN(CCCCOc1ccc2[nH]c(=O)ccc2c1)CC1CCCCCCC1 [Example 65] | 11 µM | 14 µM | –
O=C(CN1CCC(O)CC1)N(CCCCOc1ccc2[nH]c(=O)ccc2c1)CC1CCCCCCC1 [Example 21] | 4.2 µM | 3.1 µM | –
N#Cc1ccc(CN(CCCCCOc2ccc3[nH]c(=O)ccc3c2)CCN2CCC(O)CC2)cc1 [Example 33] | 5.6 µM | 9.1 µM | –
O=c1ccc2cc(OCCCS(=O)(=O)N(CCN3CCOCC3)CC3CCCCCCC3)ccc2[nH]1 [Example 98] | 9.1 µM | 12 µM | –
O=S(=O)(CCCOc1ccc2[nH]c(=S)ccc2c1)N(CCN1CCC(O)CC1)c1ccccc1 [Example 87] | 4.7 µM | – | –
COc1ccc(CN(CCCCCOc2ccc3[nH]c(=O)ccc3c2)CCN2CCC(O)CC2)cc1OC [Example 35] | 11 µM | 11 µM | –
